Data taken from patent US20230125212A1, “MEANS AND METHODS FOR ENHANCING CA[…]” (priority 2020, published 2023).

System: pilocarpine-induced epilepsy
Test: Rat model of pilocarpine-induced epilepsy, seizure scoring by Racine scale
Format: in vivo
Conditions: CBD 25 mg/kg IP; cumulative Racine score over 120 min after pilocarpine 350 mg/kg
Experimental: Objective: The aim of the current study is to assess the effect of a new CBD formulation as seizures protection in the rat model of pilocarpine-induced epilepsy.
Study variables and endpoints: The formulation is administered IP (Intraperitoneally). The animals are assessed for: • a. Mortality & morbidity—Twice daily • b. Body weight monitoring—During acclimation and before Test Item (TI) dosing (Day 1) • c. Clinical signs—Before TI dosing, continuous follow-up during the first two hours following Pilocarpine administration. Monitoring of number and duration of seizures during 120 minutes following pilocarpine administration (Seizures rating according to Racine scale). • d. Study termination—At the end of the seizures' observation (120 minutes after Pilocarpine administration) animals are sedated with Ketamine/Xylazine mixture and are subjected to pericardial perfusion with PBS and PFA 4%, brains will be removed and stored in PFA 4% until histopathological analysis
Administration of the Test Items Each Test Item and vehicle formulation are administered to tested animals, according to Table. […]
Seizure scoring: Following model induction by Pilocarpine injection, the animals are video recorded for 2 hours. The videos are analyzed and seizures rating are recorded according to the following Racine scale below. • a. […]

In the case of `C=C(C)[C@@H]1CCC(C)=C[C@H]1c1c(O)cc(CCCCC)cc1O` [CBD, Cannabidiol], the “AV-Seizure Score” value is reported as 29.2.
